# Results taken from US20200038314A1, “PROCESS FOR PREVENTING OR SLOWING THE APPEARANCE OF UNATTRACTIVE SIGNS, GENERATED BY POLLUTANTS PRESENT IN THE ATMOSPHERE, ON THE SKIN, THE SCALP, THE HAIR OR THE MUCOUS MEMBRANES” (SOCIETE D'EXPLOITATION DE PRODUITS POUR LES INDUSTRIES …, priority 2016, published 2020).
# Legend:
# Assay type in all cases: cell-based
# cytokine IL-1α = test: assay for the cytokine IL-1α in cadmium-exposed keratinocyte culture; settings: human keratinocytes, product 24 h then cadmium 35 μM 24 h; sulforaphane at 1 μM, Extract A at 0.5%
# Description: (§1) Principle of the evaluation: evaluation of the effects of an exposure to cadmium on a keratinocyte culture.
# (§2) Protocol: Human keratinocytes are cultured in a 96-well culture plate. After a few days of culture, the products evaluated, namely the Extract A at 0.5% by weight and sulforaphane (a positive reference known to those skilled in the art), are applied in the culture medium. At the end of incubation for 24 hours, the cells are exposed to a solution of cadmium at 35 μM for 24 hours, then 24 hours later, the following various evaluations are carried out: • evaluation of the cell viability by means of a DNA assay by the Hoechst method • evaluation of the cell metabolism by means of a protein assay by the BCA method; • evaluation of the inflammatory component by means of an assay for the cytokines IL-1a and IL-8.
# Human keratinocytes [1] = test: protein assay by the BCA method on cadmium-exposed keratinocyte culture; settings: product 24 h then cadmium 35 μM 24 h, sulforaphane at 1 μM, Extract A at 0.5%
# Description: as §1, §2
# cytokine IL-8 = test: assay for the cytokine IL-8 in cadmium-exposed keratinocyte culture; settings: human keratinocytes, product 24 h then cadmium 35 μM 24 h; sulforaphane at 1 μM, Extract A at 0.5%
# Description: as §1, §2
# Human keratinocytes [2] = test: DNA assay by the Hoechst method on cadmium-exposed keratinocyte culture; settings: product 24 h then cadmium 35 μM 24 h, sulforaphane at 1 μM, Extract A at 0.5%
# Description: as §1, §2
compound,measurement,setting,value
C[S+]([O-])CCCCN=C=S (stereo not shown) [sulforaphane],Mean values of IL-1α expressed,cytokine IL-1α,0.8238 pg/μg of proteins
same,Mean values of the expressed proteins,Human keratinocytes [1],156.7 µg/mL
same,Mean values of IL-8 expressed,cytokine IL-8,3.7081 pg/μg of proteins
same,Mean values of the expressed DNA,Human keratinocytes [2],6.7 µg/mL
